Source: US20160128944A1, “COATED PARTICLES AND COMPOSITIONS COMPRISING SAME” (VYOME BIOSCIENCES PVT. LTD., priority 2013, published 2016)
Read-outs that look alike come from different tables or passages of the source.

Tested on: M. furfur
From the text: The time-kill assays are used to evaluate efficacy of antimicrobial agents, either singly or in combination, and the results can help in establishing the dose and/or time of application of the active. The time-kill assays can be used to study both concentration-dependent and time-dependent antimicrobial action.
Method: M. furfur cells were suspended in Sabouraud Dextrose Broth (SDB) at inoculum concentration of 7×10^7 cells/ml. Cells were taken from a freshly growing (3-7 days old) plate and cell suspension is vortexed to remove the cell clumps as much as possible. Sterile media were supplemented with chloramphenicol (0.25 mg/ml), cycloheximide (0.04 mg/ml) and olive oil (2%). The media were then supplemented with appropriate concentrations (two-fold serial dilutions using SDB) of zinc pyrithione powder (10 μg/ml and 50 μg/ml) with different concentrations of Capmul 908-P […]. The cultures were incubated on a tube rotator at 34° C. in CO2 incubator.
To measure the colony forming units (CFU), at different time points, aliquots (50 μl) of Malassezia cultures were serially diluted with SDBT medium (SDB containing 0.1% Triton X-100) and plated on SDA plates. The plates were incubated at 34° C. in CO2 incubator for 3 days. The viable colonies were counted and converted to CFU/ml.

In the case of zinc pyrithione [ZPT], the “Log CFU Count of M. furfur” value (ZPT 10 μg/ml, Capmul 908-P 30 μg/ml, 6 hrs) is reported as 6.50 Log CFU, the “Log CFU Count of M. furfur” value (ZPT 10 μg/ml, Capmul 908-P 30 μg/ml, 24 hrs) is reported as 5.94 Log CFU and the “Log CFU Count of M. furfur” value (ZPT 10 μg/ml, Capmul 908-P 30 μg/ml, 48 hrs) is reported as 5.06 Log CFU. The “Log CFU Count of M. furfur” value (ZPT 10 μg/ml, Capmul 908-P 50 μg/ml, 6 hrs) was 6.37 Log CFU, the “Log CFU Count of M. furfur” value (ZPT 10 μg/ml, Capmul 908-P 50 μg/ml, 24 hrs) was 5.57 Log CFU and the “Log CFU Count of M. furfur” value (ZPT 10 μg/ml, Capmul 908-P 50 μg/ml, 48 hrs) was 4.80 Log CFU. For the same substance, the “Log CFU Count of M. furfur” value (ZPT 10 μg/ml, Capmul 908-P 90 μg/ml, 6 hrs) was 6.33 Log CFU, the “Log CFU Count of M. furfur” value (ZPT 10 μg/ml, Capmul 908-P 90 μg/ml, 24 hrs) was 5.55 Log CFU and the “Log CFU Count of M. furfur” value (ZPT 10 μg/ml, Capmul 908-P 90 μg/ml, 48 hrs) was 4.77 Log CFU. For the same substance, the “Log CFU Count of M. furfur” value (ZPT 10 μg/ml, Capmul 908-P nil, 6 hrs) was 6.56 Log CFU, the “Log CFU Count of M. furfur” value (ZPT 10 μg/ml, Capmul 908-P nil, 24 hrs) was 6.13 Log CFU and the “Log CFU Count of M. furfur” value (ZPT 10 μg/ml, Capmul 908-P nil, 48 hrs) was 5.27 Log CFU. The “Log CFU Count of M. furfur” value (ZPT 50 μg/ml, Capmul 908-P 30 μg/ml, 6 h) was 6.06 Log CFU, the “Log CFU Count of M. furfur” value (ZPT 50 μg/ml, Capmul 908-P 30 μg/ml, 24 h) was 4.69 Log CFU and the “Log CFU Count of M. furfur” value (ZPT 50 μg/ml, Capmul 908-P 30 μg/ml, 48 h) was 3.25 Log CFU. For the same substance, the “Log CFU Count of M. furfur” value (ZPT 50 μg/ml, Capmul 908-P 50 μg/ml, 6 h) was 5.94 Log CFU, the “Log CFU Count of M. furfur” value (ZPT 50 μg/ml, Capmul 908-P 50 μg/ml, 24 h) was 4.62 Log CFU and the “Log CFU Count of M. furfur” value (ZPT 50 μg/ml, Capmul 908-P 50 μg/ml, 48 h) was 3.04 Log CFU. The “Log CFU Count of M. furfur” value (ZPT 50 μg/ml, Capmul 908-P 90 μg/ml, 6 h) was 5.52 Log CFU, the “Log CFU Count of M. furfur” value (ZPT 50 μg/ml, Capmul 908-P 90 μg/ml, 24 h) was 3.63 Log CFU and the “Log CFU Count of M. furfur” value (ZPT 50 μg/ml, Capmul 908-P 90 μg/ml, 48 h) was 2.08 Log CFU. The “Log CFU Count of M. furfur” value (ZPT 50 μg/ml, Capmul 908-P nil, 6 h) was 6.43 Log CFU, the “Log CFU Count of M. furfur” value (ZPT 50 μg/ml, Capmul 908-P nil, 24 h) was 5.39 Log CFU and the “Log CFU Count of M. furfur” value (ZPT 50 μg/ml, Capmul 908-P nil, 48 h) was 3.92 Log CFU. For the same substance, the “anti-microbial activity towards M. furfur in combination with propylene glycol monocaprylate” value (time-kill, ZPT 10 and 50 μg/ml with Capmul 908-P) was “potentiated with increasing concentration of propylene glycol monocaprylate”.
